What was measured:
[1] = In vivo luciferase mRNA delivery (bioluminescence imaging); parameters: species or system mice; conditions: Luc mRNA i.v., 24 h; athymic nude 1 mg/kg, C57BL/6 4 mg/kg, NSG 1 mg/kg
Method: In vivo luciferase mRNA delivery: All experiments were approved by the Institutional Animal Care & Use Committee (IACUC) of The University of Texas Southwestern Medical Center and were consistent with local, state and federal regulations as applicable. ZA3-Ep10 ZAL was formulated with in vivo formulation at 50 ZAL:38.5 cholesterol: 2 or 0.5 PEG-lipid mole ratio in the lipid mix, and 7.5:1 ZAL:mRNA weight ratio. Athymic Nude-Foxn1^nu mice (Harlan Laboratories) were injected with ZAL-mRNA NPs at a dose of 1 mg/kg via tail vein injection or intraperiotneal injection. After 24 h and 48 h the luciferase expression was evaluated by live animal bioluminescence imaging Animals were anesthetized under isofluorane, and D-luciferin monosodium hydrate (GoldBio) substrate was injected IP. […]
All experiments were approved by the Institutional Animal Care & Use Committee (IACUC) of The University of Texas Southwestern Medical Center and were consistent with local, state and federal regulations as applicable. […] After 24 h and 48 h the luciferase expression was evaluated by live animal bioluminescence imaging Animals were anesthetized under isofluorane, and D-luciferin monosodium hydrate (GoldBio) substrate was injected subcutaneously in the neck scruff. […]

A549-Luc cells = assay: Cas9 mRNA delivery: mRNA level (RT-qPCR) and Cas9 protein expression (western blot); assay type: cell-based; conditions: for level of Cas9 mRNA: A549 lung cancer cells
Method: The cells were lysed in cold RIPA buffer (Thermo Scientific), the lysate cleared by centrifugation and total protein in the supernatant quantified by the BCA assay (Pierce). 50 μg total protein was loaded on 4-20% precast polyacrylamide gel and transferred to a nitrocellulose membrane (BioRad). The membrane was blocked in 5% nonfat milk for 1 hour at RT, and then incubated with primary antibody at 4° C. overnight (Cas9 antibody, 1:1000, Cell Signaling, 14697S; beta-actin antibody, 1:2000, Cell Signaling, 4970). Secondary antibodies were applied at RT for 1 hour (anti-rabbit IgG, HRP-linked antibody, Cell Signaling, 7074, anti-mouse IgG, HRP-linked antibody, Cell Signaling, 7076), and then the membrane was developed and detected on X-ray film.
Cells were transfected with Cas9 mRNA for the indicated time point in a 6-well plate and 0.5 μg/mL mRNA for the indicated time point. Total RNA was extracted using the TRIzol reagent according to the manufacturer's protocol. The RNA was reverse transcribed using the iScript Reverse Transcription kit (BioRad) and the real-time qPCR was run on a Bio-Rad C1000 Touch Thermal Cycler (CFX384 Real-time System). Each reaction was made with iTaq Universal SYBR Green 2× Supermix (Bio-Rad). The qPCR program is as follows:
Human β-actin was used as a control and mRNA levels were normalized to fold actin and plotted as an average of two independent experiments.

[2] = tested on: Lox-Stop-Lox tdTomato (tdTO) cassette; assay: In vivo delivery of Cas9 mRNA and sgLoxP (tdTomato activation); parameters: species or system mice; conditions: 5 mg/kg
Method: ZA3-Ep10 ZNPs encapsulating Cas9 mRNA and sgLoxp were prepared according to the in vivo nanoparticle formulation protocol using the Nanoassemblr microfluidic mixing device. The lipid mix contained 50 ZA3-Ep10:38.5 cholesterol:0.5 PEG-lipid molar ratios, and the particles were formulated at a 7.5:1 ZAL:total RNA weight ratio. The Cas9 mRNA:sgLoxP weight ratio was maintained at 4:1. […] After which they were sacrificed and the major organs imaged using the IVIS Lumina system for fluorescence expression (dsRed filter set) compared to an uninjected Rosa 26-LSL-tdTomato mouse. A liver specific Cre recombinase adeno-associated virus (Cre-AAV8) injected intravenously via tail vein injection (4 days) was used as a positive control.
Tissue were fixed in 4% paraformaldehyde (PFA) at RT for 2 hours, then changed in 30% sucrose (in PBS) at 4° C. overnight. Then the tissues were embedded in Cryo-gel (Leica Biosystems), and frozen in dry ice. The blocks were sectioned using Cryostat machine (Leica Biosystems) at 8 μm thickness. […]
For detection of Tomato positive populations, primary hepatocytes (2×10^6/mL) were isolated and stained with DAPI (Roche, 2 μg/mL) for dead cell exclusion. Cells were analyzed with BD FACSAria Fusion machine (BD Biosciences). Tomato positive cells were counted in DAPI negative (live cell) populations.

[3] = Nanoparticle size by dynamic light scattering; assay type: physicochemical; conditions: Luc mRNA NPs, varied PEG-lipid
Method: (§1) Nanoparticle property characterization: Physical properties were measured using a Zetasizer Nano ZS (Malvern) with an He—Ne laser (λ=632 nm). Particle sizes were measured by dynamic light scattering (DLS) (5 measurements, 3 runs×10 seconds, automatic attenuator setting) by 173° back scattering. Zeta potential was measured in a folded capillary cell (Malvern) with samples diluted in PBS for ZAL NPs or citrate phosphate buffer pH 7.4 for CSAL NPs.
as §1, with “Physical” for “Nanoparticle property characterization: Physical”

change in ZNP size versus PEG lipid ratio [3]: modest change
SMILES: CCCCCCCCC(O)CN(CCC(=O)NCC[N+](C)(C)CCCS(=O)(=O)[O-])CCN(CCN(CC(O)CCCCCCCC)CC(O)CCCCCCCC)CCN(CC(O)CCCCCCCC)CC(O)CCCCCCCC (stereo not drawn) [ZA3-Ep10]
tissues with expression of luciferase [1]: liver, lung and spleen | time of highest Cas9 protein expression (A549-Luc cells; A549 cells, low at 4 h, increased by 12 h): 36 h | level of Cas9 mRNA (A549-Luc cells; after 4 h incubation): > 4 fold actin | level of Cas9 mRNA (A549-Luc cells; over the next 45 h): 0.7 fold actin | fluorescent signal 2 months after treatment [2]: significant fluorescent signal in the liver and kidneys
